Assay results as given in patent US20030190642A1, “Thymus expressed human cytochrome p450(p450tec)” (priority 2003, published 2003).

Molecular target: T1, P450TEC (Homo sapiens, UniProt Q7Z449)
T1 construct: One of 5 clones contained a putative full length cytochrome, which we have named P450TEC; made in house; host or cells: Sf9 insect cells, recombinant baculovirus (pVL1392 transfer vector); microsomal fraction
T1 sequence (Q7Z449 1-544): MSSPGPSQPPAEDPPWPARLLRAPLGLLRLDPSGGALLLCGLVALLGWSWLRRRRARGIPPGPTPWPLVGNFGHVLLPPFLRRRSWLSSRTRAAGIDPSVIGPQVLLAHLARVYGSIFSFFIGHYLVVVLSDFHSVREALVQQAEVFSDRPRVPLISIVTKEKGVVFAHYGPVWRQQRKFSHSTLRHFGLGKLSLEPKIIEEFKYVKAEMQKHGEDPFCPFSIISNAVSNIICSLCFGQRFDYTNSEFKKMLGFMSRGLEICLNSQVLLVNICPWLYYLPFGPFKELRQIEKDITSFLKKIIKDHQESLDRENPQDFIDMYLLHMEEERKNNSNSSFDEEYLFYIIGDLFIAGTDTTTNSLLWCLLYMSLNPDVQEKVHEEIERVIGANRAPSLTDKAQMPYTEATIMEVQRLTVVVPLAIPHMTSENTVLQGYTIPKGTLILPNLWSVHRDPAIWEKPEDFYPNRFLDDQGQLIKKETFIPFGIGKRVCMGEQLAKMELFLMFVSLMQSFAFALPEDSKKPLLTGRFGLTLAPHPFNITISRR
Test: Arachidonic acid metabolism by baculovirus-Sf9-expressed P450TEC microsomes (HPLC, LC-MS)
Format: biochemical
Method: Cultured Sf9 insect cells expressing recombinant P450TEC were harvested 3 days after infection, washed twice with phosphate buffered saline (PBS) and resuspended in lysis buffer (100 mM Tris-HCl, pH 7.4, 1 mM EDTA, 0.5 M sucrose) containing protease inhibitor cocktail (Roche Diagnostics GmbH, Mannheim, Germany, 1 tablet per 10 ml lyses buffer). Cells were disrupted by brief sonication (5-8 bursts of 5 seconds duration) on ice using 550 Sonic Dismembrator (Fisher Scientific, Canada). The resulting cell lysates were successively centrifuged, at 800g, and 10,000g for 10 min each time at 4° C. Microsomal fractions from the 10,000g supernatants were pelleted by centrifugation at ˜1 00,000g for 60 min at 4° C. The pellet was then resuspended in microsomes storage buffer (10 mM Tris-HCl, pH 7.4, 5 mM MgCl2, 1mM EDTA, 150 mM KCI and 10% glycerol) and stored at −70° C. […]
For MS and MS/MS analyses of arachidonic acid metabolites, 5 μM of unlabeled arachidonic acid was incubated for 60 min. […] Similarly, ethyl acetate extracts from microsomal incubations without arachidonic acid was also processed and analyzed by LC-MS. […]

metabolite formed from arachidonic acid by P450TEC (P450TEC microsomes, NADPH, 1 or 20 μM [1-14C] arachidonic acid, 60 min, 37° C.): monohydroxylated arachidonic acid
Compound: CCCCCC=CCC=CCC=CCC=CCCCC(=O)O [arachidonic acid, 5,8, 11, 14-eicosatetraenoic acid]
linearity of arachidonic acid metabolite formation with time (5 μM [1-14C] arachidonic acid, NADPH-CYP oxidoreductase+b5 and NADPH, 15, 30 and 60 min): directly porportional to time of incubation
